Results as given in PMC3846562, “Retro-Inverso Carbohydrate Mimetic Peptides with Annexin1-Binding Selectivity, Are Stable In Vivo, and Target Tumor Vasculature” (PLoS ONE, 2013).
One block for each compound: values may come before it. Where a SMILES comes first, the peptide text is derived from it. [ ]: non-standard residue; d: D form. The star is where a group is joined. 5TAMRA = CN(C)c1ccc2c(c1)Oc1cc(N(C)C)ccc1C21OC(=O)c2cc(C(=O)*)ccc21

What was measured:
[1] = Stability of TMR-labeled peptides in mouse plasma; assay type: in vitro ADME; details: 37°C; for susceptibility to mouse plasma proteases (in words): incubated with fresh mouse plasma, HPLC
Experimental: Mouse blood was collected in serum-separation tubes containing heparin sodium and immediately centrifuged at 10,000 rpm for 10 min. Fresh mouse plasma was then removed and stored for further analysis. Then, 200 µg of TMR-RIF7 and TMR-IF7 was dissolved in 10 µl DMSO, added to 1 ml of the fresh plasma, and incubated at 37°C. A 50 µl aliquot was withdrawn from the incubation mixture at the time indicated, added to 450 µl acetonitrile: water (50∶50) containing 0.1% TFA, centrifuged at 5,000 rpm for 10 min to remove Insoluble material, and then the supernatant was analyzed by HPLC as described previously in §2.2. Elution was monitored (excitation λ = 543 nm; emission λ = 570 nm). The relative amount of TMR-RIF7 and TMR-IF7 that remained in the mouse plasma […].

[2] = test system: A549 cells; test: Cell binding after pre-incubation in complete medium (10% FBS); assay type: cell-based, human; details: 10 min; for fluorescent intensity after incubation of peptide with complete medium prior to cells: complete medium containing 10% FBS, 37°C, then A549 cells, IF7 p<0.001, RIF7 p<0.01
Experimental: A549 cells were seeded (5×10^3 cells/well) in 96-well plates (Corning Coaster, Tokyo, Japan) and incubated for 12 h. Cells were incubated with serum free medium (special Dulbecco's modified Eagle medium supplemented with 100 U/mL penicillin, […] streptomycin) containing TMR-RIF7, TMR-IF7, or TMR-RQ7 (TMR conjugated to reverse IF7: sequence RQWLLFI, composed of L-amino acids) at the concentration of 10 µg/ml. In addition, to verify the stability of modified peptides, TMR-IF7 and TMR-RIF7 were incubated with complete medium (special Dulbecco's modified Eagle medium supplemented with 10% heat-inactivated FBS, 100 U/mL penicillin, […] streptomycin) for 10 min at 37°C in advance of serum free medium. The solution was removed and cells were washed three times with ice-cold PBS (pH 7.4) and then visualized under a fluorescent microscope (Leica DMI 4000B, Germany).
(§1) For direct competition studies, non-labeled IF7 or RIF7 (10 µg/ml) was added to each well and incubated for 30 min. TMR-IF7 or TMR-RIF7 (10 µg/ml) were then added and incubated at 37°C for 30 min. The solution was removed and the cells were washed three times with ice-cold PBS (pH 7.4) and then visualized under a fluorescent microscope (Leica DMI 4000B, Germany). The fluorescent signal intensity of each well was quantified using an F-7000 FL spectrophotometer.

[3] = biological target: T1, Anxa1 (Homo sapiens, UniProt P04083); test: Inhibition assay of cell binding with anti-Anxa1 antibody; assay type: cell-based; details: A549 cells; for influence of normal rabbit IgG on binding capacity to cells: normal rabbit IgG 4 µg per well 30 min prior to peptide
T1 construct: endogenous in cells; host or cells: A549 cells
T1 sequence (P04083 1-346): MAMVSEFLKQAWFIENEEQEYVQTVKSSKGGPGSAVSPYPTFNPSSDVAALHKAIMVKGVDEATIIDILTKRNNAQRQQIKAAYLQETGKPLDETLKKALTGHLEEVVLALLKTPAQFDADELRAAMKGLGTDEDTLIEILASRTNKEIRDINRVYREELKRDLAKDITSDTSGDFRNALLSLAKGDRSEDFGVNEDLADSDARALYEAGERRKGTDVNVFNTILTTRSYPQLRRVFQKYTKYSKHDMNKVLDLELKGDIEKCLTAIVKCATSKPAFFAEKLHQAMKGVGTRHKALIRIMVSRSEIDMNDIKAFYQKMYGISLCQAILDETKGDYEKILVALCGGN
Experimental: For inhibition assays, anti-Anxa1 antibody or control normal rabbit IgG (4 µg each) was added to each well and incubated for 30 min. TMR-IF7 or TMR-RIF7 (10 µg/ml) were then added and incubated at 37°C for 30 min. The solution was removed and cells were washed three times with ice-cold PBS (pH 7.4) and then visualized under a fluorescent microscope (Leica DMI 4000B, Germany).
as §1

[4] = biological target: T1, Anxa1; test: Direct competition study with non-labeled peptide; assay type: cell-based; details: A549 cells
Experimental: as §1

[5] = test system: lung melanoma (B16-F10); assay type: in vivo, mouse
Experimental: (§2) B16-F10 cells (7.5×10^5 cells suspended in 250 µl PBS) were injected intravenously into BALB/c mice to establish a pulmonary metastatic melanoma model. Specifically, KBv cells (5×10^6cells suspended in 200 ml cell culture medium) were inoculated subcutaneously into the right hind legs of nude mice to produce a subcutaneous KBv xenograft model. Ex vivo real-time fluorescence imaging analysis was used to evaluate the tumor targeting activity of TMR-RIF7. One week after inoculation, TMR-IF7 or TMR-RIF7 (200 µl, 0.5 mg/ml in 5% glucose solution) was injected through the tail vein of mice bearing pulmonary tumors. The mice were then sacrificed and perfused intracardially with normal saline to compare tissue and tumor distribution of TMR-RIF7. Tumor-bearing lungs and other major organs, including hearts, livers, spleens and kidneys were removed, washed with saline, and imaged using a Cambridge Research & Instrumentation (CRi) in vivo imaging system (CRi, MA, USA). When subcutaneous KBv tumors were grown to a palpable size (about 8–10 mm diameter), the same process was carried out to evaluate tissue and tumor distribution of TMR-RIF7 in subcutaneous tumor-bearing nude mice. Next, 20 µg of each rabbit anti-Anxa1 antibody (N-19) or rabbit IgG antibody was injected 15 min prior to TMR-IF7 or TMR-RIF7 injection for inhibition assays in pulmonary tumor-bearing mice. Then, resulting images (spectral cube, containing a spectrum at every pixel) were loaded into Maestro™ 2.10 software and analyzed.

[6] = Systemic distribution in dissected organs, ex vivo imaging; parameters: species or system mouse; details: for organ distribution of TMR-labeled peptide: major organs collected at 30 min and 4 h after i.v. injection
Experimental: as §2, with “Ex” for “B16-F10 cells (7.5×10^5 cells suspended in 250 µl PBS) were injected intravenously into BALB/c mice to establish a pulmonary metastatic melanoma model. Specifically, KBv cells (5×10^6cells suspended in 200 ml cell culture medium) were inoculated subcutaneously into the right hind legs of nude mice to produce a subcutaneous KBv xenograft model. Ex”

[7] = biological target: T2, Anxa1 (Mus musculus, UniProt P10107); test: In vivo inhibition assay with anti-Anxa1 antibody in pulmonary tumor-bearing mice; details: 20 µg rabbit IgG 15 min prior to peptide
T2 construct: IF7 or RIF7 targets tumors through Anxa1 expressed on endothelial cell surfaces; from tissue; host or cells: pulmonary tumour vasculature of tumour-bearing mice (in vivo)
T2 sequence (P10107 1-346): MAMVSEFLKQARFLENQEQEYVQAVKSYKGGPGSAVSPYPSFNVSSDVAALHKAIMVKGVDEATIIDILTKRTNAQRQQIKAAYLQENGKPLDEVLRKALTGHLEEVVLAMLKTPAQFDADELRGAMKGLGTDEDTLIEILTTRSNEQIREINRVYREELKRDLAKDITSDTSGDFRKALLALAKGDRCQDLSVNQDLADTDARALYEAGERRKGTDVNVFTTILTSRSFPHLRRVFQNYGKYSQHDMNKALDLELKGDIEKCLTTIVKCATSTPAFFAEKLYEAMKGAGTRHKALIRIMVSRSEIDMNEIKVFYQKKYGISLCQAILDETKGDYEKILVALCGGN
Experimental: as §2, with “Ex” for “B16-F10 cells (7.5×10^5 cells suspended in 250 µl PBS) were injected intravenously into BALB/c mice to establish a pulmonary metastatic melanoma model. Specifically, KBv cells (5×10^6cells suspended in 200 ml cell culture medium) were inoculated subcutaneously into the right hind legs of nude mice to produce a subcutaneous KBv xenograft model. Ex”

[8] = test system: tumor; details: mice; cited from earlier work
Description: Hatakeyama's laboratory used peptide-displaying phage technology to generate a carbohydrate mimetic peptide with the consensus sequence IFLLWQR, which was designated IF7 [14]. IF7 has a special affinity for the tumor vasculature and functions as an efficient anticancer drug delivery vehicle, slowing tumor growth. Experiments confirmed that IF7 specifically binds to a 15-kDa fragment of annexin1 (Anxa1). Anxa1 is a member of the large annexin family of cytosolic proteins with calcium-dependent associations with cell membranes.

[9] = test system: subcutaneous KBv xenografts; test: Ex vivo fluorescence imaging, subcutaneous KBv xenograft model; assay type: in vivo; details: nude mice, both 30 min and 4 h after i.v. injection
Experimental: as §2, with “Next, 20 µg of each rabbit anti-Anxa1 antibody (N-19) or rabbit IgG antibody was injected 15 min prior to TMR-IF7 or TMR-RIF7 injection for inhibition assays in pulmonary tumor-bearing mice.” left out

[10] = TMR-labeled peptide 10 µg/ml, 37°C, 30 min, F-7000 FL spectrophotometer, mean ± SD, n = 3

Compound: CC[C@H](C)[C@H](NC(=O)c1ccc2c(c1)C(=O)OC21c2ccc(N(C)C)cc2Oc2cc(N(C)C)ccc21)C(=O)N[C@@H](Cc1ccccc1)C(=O)N[C@@H](CC(C)C)C(=O)N[C@@H](CC(C)C)C(=O)N[C@@H](Cc1c[nH]c2ccccc12)C(=O)N[C@@H](CCC(N)=O)C(=O)N[C@@H](CCCNC(=N)N)C(=O)O [TMR-IF7] (5TAMRA-IFLLWQR-OH)
metabolised at 0.5 h, 198 µg/mL ([1]; fresh heparinised mouse plasma, fresh heparin mouse plasma, 200 µg peptide in 10 µl DMSO per 1 ml plasma, within 30 min, HPLC with fluorescence detection (ex 543 nm, em 570 nm), mean of at least three experiments, read-out: peptide degraded in mouse plasma): > 80%
susceptibility to mouse plasma proteases (in words) [1]: rapidly degraded

Compound: CC[C@@H](C)[C@@H](NC(=O)[C@@H](Cc1ccccc1)NC(=O)[C@@H](CC(C)C)NC(=O)[C@@H](CC(C)C)NC(=O)[C@@H](Cc1c[nH]c2ccccc12)NC(=O)[C@@H](CCC(N)=O)NC(=O)[C@@H](CCCNC(=N)N)NC(=O)c1ccc2c(c1)C(=O)OC21c2ccc(N(C)C)cc2Oc2cc(N(C)C)ccc21)C(=O)O [TMR-RIF7] (5TAMRA-[dR][dQ][dW][dL][dL][dF][dI]-OH)
remaining at 6 h, 198 µg/mL ([1]; fresh heparinised mouse plasma, fresh heparin mouse plasma, 200 µg peptide in 10 µl DMSO per 1 ml plasma, within 6 h, HPLC with fluorescence detection (ex 543 nm, em 570 nm), mean of at least three experiments, read-out: peptide remaining intact in mouse plasma): ~70%
susceptibility to mouse plasma proteases (in words) [1]: did not change significantly
resistance to protease in complete medium (qualitative imaging) ([2]; complete medium with 10% FBS, 37°C prior to incubation with A549 cells): more resistant to protease in complete medium than TMR-IF7

intensity of fluorescence, cells treated with peptide only [3, 10]: 19.32±0.89
intensity of fluorescence, cells incubated with anti-Anxa1 antibody prior to peptide ([3]; anti-Anxa1 antibody 4 µg per well 30 min, then TMR-labeled peptide 10 µg/ml, 37°C, 30 min, mean ± SD, n = 3): 5.26±1.97
influence of normal rabbit IgG on binding capacity to cells [3]: little influence
fluorescent intensity, cells treated with peptide only (competition assay) [4, 10]: 20.31±1.78
fluorescent intensity, cells pre-incubated with non-labeled competitor ([4]; non-labeled peptide 10 µg/ml 30 min, then TMR-labeled peptide 10 µg/ml, 37°C, 30 min, mean ± SD, n = 3): 4.26±1.96
fluorescent intensity after incubation of peptide with complete medium prior to cells [2]: decreased significantly
Compound: IFLLWQR [IF7, parent peptide]
mean fluorescent intensity in the lung tumor region ([5]; 12 h post intravenous injection, mean ± SD, n = 3): hardly detectable
organ distribution of TMR-labeled peptide [6]: distributed mainly in liver, kidney and tumor tissue
effect of normal rabbit IgG injected prior to peptide [7]: did not alter targeted distribution in the lung
time for which the tumor signal remained high [8]: 40 min
time to detection in the tumor after injection [8]: ≤ 1 min
time to plateau in the tumor [8]: 9 min

binding to Anxa1 inhibited by anti-Anxa1 antibody ([3]; anti-Anxa1 antibody 4 µg per well 30 min prior to TMR-labeled peptide 10 µg/ml): ~70%
influence of normal rabbit IgG on binding capacity to cells [3]: little influence
binding to Anxa1 inhibited by non-labeled peptide ([4]; non-labeled peptide 10 µg/ml 30 min prior to TMR-labeled peptide 10 µg/ml): ~67%
fluorescent intensity after incubation of peptide with complete medium prior to cells [2]: decreased significantly
Compound: RQWLLFI [RIF7]
signal intensity in lung tumor relative to IF7 ([5]; after 4 h, mean fluorescent intensities in lung tumor region, n = 3): ~2.3 fold
fluorescent signal in lung melanoma compared with the IF7 group ([5]; all survey points (30 min, 4, 8, 12 h)): stronger fluorescent signal
fluorescent intensity in KBv tumors compared to IF7-treated mice [9]: greater fluorescent intensity
fluorescent signals in organs compared with the other peptide ([6]; 30 min and 4 h after i.v. injection): stronger fluorescent signals at both time points
organ distribution of TMR-labeled peptide [6]: distributed mainly in liver, kidney and tumor tissue
effect of normal rabbit IgG injected prior to peptide [7]: did not alter targeted distribution in the lung

Compound: RQWLLFI [RQ7, control peptide]
signals in the lung ([6]; different time points after i.v. injection, control peptide): remained at background levels
